In patent US20070049593A1 (priority 2004, published 2007) one finds IC50 data, which are given here for 19 compounds.

Where a name gives a salt, the structure may show the parent alone. Read-outs that look alike come from different tables or passages of the source.

The target in the test is T1, HCV polymerase (Hepatitis C virus genotype 1b, UniProt P26663).
T1 construct: a region encoding NS5B (J Virol 1991 March, 65(3), 1105-13, 544 amino acids after deletion of 47 amino acids on the C-terminal); 6xHis (C); made in house; host or cells: Escherichia coli
The test is described as follows: biochemical. Further details: species or system HCV BK strain. Summed up: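 His-tagged NS5B (BK strain, 47-aa C-terminal deletion, E. coli-expressed) at 0.5 μg/ml copied 5 μg/ml run-off RNA bearing the HCV 3′ UTR with 2 μM UTP plus [3H]UTP, 50 μM ATP/GTP, in pH 7.5 Tris with 5 mM MgCl2, 25 °C, 90 min. TCA-precipitated RNA was counted and IC50 calculated.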

T1 sequence (P26663 2420-2963): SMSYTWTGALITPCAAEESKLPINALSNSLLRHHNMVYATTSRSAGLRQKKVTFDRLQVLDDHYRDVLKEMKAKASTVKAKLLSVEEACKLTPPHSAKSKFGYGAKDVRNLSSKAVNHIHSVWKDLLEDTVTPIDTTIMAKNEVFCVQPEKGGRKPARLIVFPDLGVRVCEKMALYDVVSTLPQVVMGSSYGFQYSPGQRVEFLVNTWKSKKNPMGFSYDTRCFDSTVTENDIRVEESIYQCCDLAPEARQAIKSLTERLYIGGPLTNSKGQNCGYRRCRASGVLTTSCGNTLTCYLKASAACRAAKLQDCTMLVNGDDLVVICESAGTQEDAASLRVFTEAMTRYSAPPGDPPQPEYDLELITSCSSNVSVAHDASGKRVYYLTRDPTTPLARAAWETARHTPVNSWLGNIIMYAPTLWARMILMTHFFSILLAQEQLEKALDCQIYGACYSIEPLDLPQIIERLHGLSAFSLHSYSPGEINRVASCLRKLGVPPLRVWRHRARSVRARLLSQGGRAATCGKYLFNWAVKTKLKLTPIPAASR

Take `COC(=O)C(Cc1ccc(O)cc1)NC(=O)c1ccc2c(C3CCCCC3)c3n(c2c1)CCN(C)c1cc(C)ccc1-3` [Example 1-473, methyl (S)-2-[(13-cyclohexyl-3,5-dimethyl-6,7-dihydro-5H-benzo[5,6][1,4]diazepino[7,1-a]indole-10-carbonyl)amino]-3-(4-hydroxyphenyl)propionate]: the IC50 (25° C., 90 min, [5,6-3H]UTP incorporation into RNA, read-out: HCV polymerase inhibitory activity IC50) was below 100 nM.

With `CCN1CCn2c(c(C3CCCCC3)c3ccc(C(=O)O)cc32)-c2ccc(OC)cc21` [Example 1-474, 13-cyclohexyl-5-ethyl-3-methoxy-6,7-dihydro-5H-benzo[5,6][1,4]diazepino[7,1-a]indole-10-carboxylic acid], the IC50 is below 100 nM.

`COc1ccc2c(c1)N(C(C)C)CCn1c-2c(C2CCCCC2)c2ccc(C(=O)O)cc21` [Example 1-475, 13-cyclohexyl-5-isopropyl-3-methoxy-6,7-dihydro-5H-benzo[5,6][1,4]diazepino[7,1-a]indole-10-carboxylic acid monohydrochloride] gave an IC50 below 100 nM.

With `Cc1ccc2c(c1)N(CC(=O)N1CCCOCC1)CCn1c-2c(C2CCCCC2)c2ccc(C(=O)O)cc21` [Example 1-476, sodium salt of 13-cyclohexyl-3-methyl-5-[2-(1,4-oxazepan-4-yl)-2-oxoethyl]-6,7-dihydro-5H-benzo[5,6][1,4]diazepino[7,1-a]indole-10-carboxylic acid], the IC50 was below 100 nM.

For the compound `CCN1CCn2c(c(C3CCCCC3)c3ccc(C(=O)NC4(C(=O)Nc5ccc(/C=C/C(=O)O)cc5)CCC4)cc32)-c2ccc(OC)cc21` [Example 1-477, (E)-3-[4-({1-[(13-cyclohexyl-5-ethyl-3-methoxy-6,7-dihydro-5H-benzo[5,6][1,4]diazepino[7,1-a]indole-10-carbonyl)amino]cyclobutanecarbonyl}amino)phenyl]acrylic acid], the IC50 was below 100 nM.

The compound `COc1ccc2c(c1)N(C(C)C)CCn1c-2c(C2CCCCC2)c2ccc(C(=O)NC3(C(=O)Nc4ccc(/C=C/C(=O)O)cc4)CCC3)cc21` [Example 1-478, (E)-3-[4-({1-[(13-cyclohexyl-5-isopropyl-3-methoxy-6,7-dihydro-5H-benzo[5,6][1,4]diazepino[7,1-a]indole-10-carbonyl)amino]cyclobutanecarbonyl}amino)phenyl]acrylic acid] yielded an IC50 below 100 nM.

Compound `COCCN1CCn2c(c(C3CCCCC3)c3ccc(C(=O)O)cc32)-c2ccc(OC)cc21` [Example 1-479, 13-cyclohexyl-3-methoxy-5-(2-methoxyethyl)-6,7-dihydro-5H-benzo[5,6][1,4]diazepino[7,1-a]indole-10-carboxylic acid] showed a half-inhibitory concentration (IC50) below 100 nM.

`COc1ccc2c(c1)N(CCOC(C)C)CCn1c-2c(C2CCCCC2)c2ccc(C(=O)O)cc21` [Example 1-480, 13-cyclohexyl-5-(2-isopropoxyethyl)-3-methoxy-6,7-dihydro-5H-benzo[5,6][1,4]diazepino[7,1-a]indole-10-carboxylic acid] showed a half-maximal inhibitory concentration (IC50) below 100 nM.

Compound `COCCN1CCn2c(c(C3CCCCC3)c3ccc(C(=O)NC4(C(=O)Nc5ccc(/C=C/C(=O)O)cc5)CCC4)cc32)-c2ccc(OC)cc21` [Example 1-481, (E)-3-{4-[(1-{[13-cyclohexyl-3-methoxy-5-(2-methoxyethyl)-6,7-dihydro-5H-benzo[5,6][1,4]diazepino[7,1-a]indole-10-carbonyl]amino}cyclobutanecarbonyl)amino]phenyl}acrylic acid] came in with an IC50 below 100 nM.

Take `COc1ccc2c(c1)N(CCOC(C)C)CCn1c-2c(C2CCCCC2)c2ccc(C(=O)NC3(C(=O)Nc4ccc(/C=C/C(=O)O)cc4)CCC3)cc21` [Example 1-482, (E)-3-{4-[(1-{[13-cyclohexyl-5-(2-isopropoxyethyl)-3-methoxy-6,7-dihydro-5H-benzo[5,6][1,4]diazepino[7,1-a]indole-10-carbonyl]amino}cyclobutanecarbonyl)amino]phenyl}acrylic acid]: the IC50 is below 100 nM.

Take `COc1ccc2c(c1)N(CC(C)C)CCn1c-2c(C2CCCCC2)c2ccc(C(=O)O)cc21` [Example 1-483, 13-cyclohexyl-5-isobutyl-3-methoxy-6,7-dihydro-5H-benzo[5,6][1,4]diazepino[7,1-a]indole-10-carboxylic acid]: the IC50 is below 100 nM.

The compound `COc1ccc2c(c1)N(CC(C)C)CCn1c-2c(C2CCCCC2)c2ccc(C(=O)NC3(C(=O)Nc4ccc(/C=C/C(=O)O)cc4)CCC3)cc21` [Example 1-484, (E)-3-[4-({1-[(13-cyclohexyl-5-isobutyl-3-methoxy-6,7-dihydro-5H-benzo[5,6][1,4]diazepino[7,1-a]indole-10-carbonyl)amino]cyclobutanecarbonyl}amino)phenyl]acrylic acid] displayed an IC50 below 100 nM.

For the compound `O=C(O)c1ccc2c(C3CCCCC3)c3n(c2c1)CCN(CCN1CCC[C@H](COc2ccccc2)C1)c1ccccc1-3` [Example 1-485, 13-cyclohexyl-5-[2-((S)-3-phenoxymethylpiperidin-1-yl)ethyl]-6,7-dihydro-5H-benzo[5,6][1,4]diazepino[7,1-a]indole-10-carboxylic acid dihydrochloride], the IC50 was below 100 nM.

`O=C(O)c1ccc2c(C3CCCCCC3)c3n(c2c1)CCN(CCN1CCCCC1)c1cc(Cl)ccc1-3` [Example 1-486, 3-chloro-13-cycloheptyl-5-[2-(piperidin-1-yl)ethyl]-6,7-dihydro-5H-benzo[5,6][1,4]diazepino[7,1-a]indole-10-carboxylic acid] gave a half-maximal inhibitory concentration (IC50) below 100 nM.

For `Cc1ccc2c(c1)N(CCC13CCC(CC1)N3Cc1ccccc1)CCn1c-2c(C2CCCCC2)c2ccc(C(=O)O)cc21` [Example 1-487, 5-[2-(7-benzyl-7-azabicyclo[2.2.1]hept-1-yl)ethyl]-13-cyclohexyl-3-methyl-6,7-dihydro-5H-benzo[5,6][1,4]diazepino[7,1-a]indole-10-carboxylic acid], the IC50 is below 100 nM.

With `Cc1ccc2c(c1)N(CCC13CCC(CC1)N3)CCn1c-2c(C2CCCCC2)c2ccc(C(=O)O)cc21` [Example 1-488, 5-[2-(7-azabicyclo[2.2.1]hept-1-yl)ethyl]-13-cyclohexyl-3-methyl-6,7-dihydro-5H-benzo[5,6][1,4]diazepino[7,1-a]indole-10-carboxylic acid monohydrochloride], the IC50 was below 100 nM.

Regarding `Cc1ccc2c(c1)N(CCC13CCC(CC1)N3CC(=O)O)CCn1c-2c(C2CCCCC2)c2ccc(C(=O)O)cc21` [Example 1-489, 5-[2-(7-carboxymethyl-7-azabicyclo[2.2.1]hept-1-yl)ethyl]-13-cyclohexyl-3-methyl-6,7-dihydro-5H-benzo[5,6][1,4]diazepino[7,1-a]indole-10-carboxylic acid], the concentration for half-maximal inhibition (IC50) is below 100 nM.

For the compound `N#Cc1ccc2c(c1)N(CCN1CCCCC1)CCn1c-2c(C2CCCCC2)c2ccc(C(=O)O)cc21` [Example 1-490, 3-cyano-13-cyclohexyl-5-[2-(piperidin-1-yl)ethyl]-6,7-dihydro-5H-benzo[5,6][1,4]diazepino[7,1-a]indole-10-carboxylic acid monohydrochloride], the half-inhibitory concentration (IC50) was below 100 nM.

Compound `NC(=O)c1ccc2c(c1)N(CCN1CCCCC1)CCn1c-2c(C2CCCCC2)c2ccc(C(=O)O)cc21` [Example 1-491, 3-carbamoyl-13-cyclohexyl-5-[2-(piperidin-1-yl)ethyl]-6,7-dihydro-5H-benzo[5,6][1,4]diazepino[7,1-a]indole-10-carboxylic acid monohydrochloride] had an IC50 below 100 nM.
